Tests used:
[1] = target: Monoglyceride lipase MGLL (Mus musculus) (UniProt O35678); assay: Inhibition of mouse brain MAGL
[2] = target: T1, Fatty-acid amide hydrolase 1 (Mus musculus, UniProt O08914); assay: Inhibition of mouse brain FAAH assessed as conversion of [3H-ethanolamine]AEA to [3H]ethanolamine by scintillation counting
T1 sequence (O08914 whole entry): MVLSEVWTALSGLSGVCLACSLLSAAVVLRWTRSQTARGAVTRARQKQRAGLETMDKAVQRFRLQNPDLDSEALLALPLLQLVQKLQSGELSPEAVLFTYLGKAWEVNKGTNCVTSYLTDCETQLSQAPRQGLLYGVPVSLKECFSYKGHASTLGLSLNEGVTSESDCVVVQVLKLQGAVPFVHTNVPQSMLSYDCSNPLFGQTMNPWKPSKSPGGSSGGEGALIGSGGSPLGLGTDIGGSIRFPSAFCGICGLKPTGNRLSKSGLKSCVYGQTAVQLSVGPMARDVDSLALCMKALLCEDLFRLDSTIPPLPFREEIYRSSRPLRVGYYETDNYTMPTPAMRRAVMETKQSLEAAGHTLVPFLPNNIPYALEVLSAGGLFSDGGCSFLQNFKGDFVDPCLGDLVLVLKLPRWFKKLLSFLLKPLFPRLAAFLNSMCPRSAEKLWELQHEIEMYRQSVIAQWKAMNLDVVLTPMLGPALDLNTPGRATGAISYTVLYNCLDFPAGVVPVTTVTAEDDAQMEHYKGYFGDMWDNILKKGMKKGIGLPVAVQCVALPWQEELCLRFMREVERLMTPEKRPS

Monoglyceride lipase MGLL (Mus musculus), sequence (O35678 whole entry, looked up): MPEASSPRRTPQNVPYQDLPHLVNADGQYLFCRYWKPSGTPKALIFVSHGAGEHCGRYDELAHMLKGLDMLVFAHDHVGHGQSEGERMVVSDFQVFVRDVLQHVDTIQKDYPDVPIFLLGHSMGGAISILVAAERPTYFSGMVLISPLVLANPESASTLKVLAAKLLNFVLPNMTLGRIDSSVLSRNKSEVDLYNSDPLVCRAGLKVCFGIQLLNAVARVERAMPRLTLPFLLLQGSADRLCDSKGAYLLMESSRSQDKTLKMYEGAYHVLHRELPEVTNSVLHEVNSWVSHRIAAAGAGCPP

| IC50 [1] | IC50 [2] | SMILES |
| --- | --- | --- |
| > 10 µM | – | CC(=NOC(=O)Nc1ccccc1)c1cccc(-c2cccs2)c1 [1-(3-Thiophen-2-yl-phenyl)-ethanone, O-(phenylaminocarbonyl)oxime] |
| – | > 50 µM | O=C(Nc1ccccc1)ON=C1CCC(c2ccccc2)CC1 (configuration not stated) [4-Phenyl-cyclohexanone, O-(phenylaminocarbonyl)oxime] |

Reference: BindingDB's records for doi:10.1016/j.bmcl.2010.06.050 (Universit&#224, 2010)
